Measured values: patent publication US20100076015A1, “Aminopyridine Derivatives” (VANTIA LIMITED, priority 2008, published 2010)

These compounds were tested against T1, Human KLK1 (Homo sapiens, UniProt P06870) (assay: Determination of the IC50 for KLK1 (fluorogenic substrate H-DVal-Leu-Arg-AFC)). Details: 37° C.
T1 construct: purchased Callbiochem (Calbiochem)
T1 sequence (P06870 25-262): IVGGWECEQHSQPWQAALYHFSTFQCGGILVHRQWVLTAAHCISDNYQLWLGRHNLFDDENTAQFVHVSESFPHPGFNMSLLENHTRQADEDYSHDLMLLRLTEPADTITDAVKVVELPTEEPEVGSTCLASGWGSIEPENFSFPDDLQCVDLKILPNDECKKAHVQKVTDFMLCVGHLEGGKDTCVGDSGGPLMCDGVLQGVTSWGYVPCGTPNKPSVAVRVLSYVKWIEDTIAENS
Format: biochemical
Method: Determination of the IC50 for KLK1
KLK1 inhibitory activity in vitro was determined using standard published methods (see e.g. Johansen et al., Int. J. Tiss. Reac. 1986, 8, 185; Shori et al., Biochem. Pharmacol., 1992, 43, 1209; Stürzebecher et al., Biol. Chem. Hoppe-Seyler, 1992, 373, 1025). Human KLK1 (Callbiochem) was incubated at 37° C. with the fluorogenic substrate H-DVal-Leu-Arg-AFC and various concentrations of the test compound. Residual enzyme activity (initial rate of reaction) was determined by measuring the change in optical absorbance at 410 nm and the IC50 value for the test compound was determined.
In the case of Cc1ccc(-c2ccc(C(=O)N[C@@H](Cc3ccccc3Cl)C(=O)NCc3ccc(N)nc3)[nH]2)cc1 [Example 295, 5-p-Tolyl-1H-pyrrole-2-carboxylic acid [(S)-1-[(6-amino-pyridin-3-ylmethyl)-carbamoyl]-2-(2-chloro-phenyl)-ethyl]-amide], the IC50 is reported as 192 nM.
In the case of COc1ccc(C[C@H](NC(=O)[C@H]2CCCN2C)C(=O)NCc2ccc(N)nc2)cc1 [Example 100, (R)-1-Methyl-pyrrolidine-2-carboxylic acid [(S)-1-[(6-amino-pyridin-3-ylmethyl)-carbamoyl]-2-(4-methoxy-phenyl)-ethyl]-amide], the IC50 is reported as 85.8 nM.
Compound COc1ccc2[nH]c(C(=O)N[C@@H](Cc3cccc(C(F)(F)F)c3)C(=O)NCc3ccc(N)nc3C)cc2c1 [Example 310, 5-Methoxy-1H-indole-2-carboxylic acid [(S)-1-[(6-amino-2-methyl-pyridin-3-ylmethyl)-carbamoyl]-2-(3-trifluoromethyl-phenyl)-ethyl]-amide] has an IC50 of 48.9 nM.
With Cc1nc(N)ccc1CNC(=O)[C@H](Cc1ccc(F)c(F)c1)NC(=O)[C@@H](C)N1CCCCC1 [Example 431, (R)—N-[(S)-1-[(6-Amino-2-methyl-pyridin-3-ylmethyl)-carbamoyl]-2-(3,4-difluoro-phenyl)-ethyl]-2-piperidin-1-yl-propionamide] the IC50 was 50.6 nM.
CN1CCC[C@@H]1C(=O)N[C@@H](Cc1c[nH]c2ccccc12)C(=O)NCc1ccc(N)nc1 [Example 113, (R)-1-Methyl-pyrrolidine-2-carboxylic acid [(S)-1-[(6-amino-pyridin-3-ylmethyl)-carbamoyl]-2-(1H-indol-3-yl)-ethyl]-amide] was tested, and the IC50 was 14.5 nM.
Cc1cc[nH]c1C(=O)N[C@@H](CC1CCCCC1)C(=O)NCc1ccc(N)nc1 [Example 273, 3-Methyl-1H-pyrrole-2-carboxylic acid {(S)-1-[(6-amino-pyridin-3-ylmethyl)-carbamoyl]-2-cyclohexyl-ethyl}-amide] showed an IC50 of 375 nM.
Cc1cc(C)c(C(=O)N[C@@H](Cc2cccc(Cl)c2)C(=O)NCc2ccc(N)nc2C)[nH]1 [Example 279, 3,5-Dimethyl-1H-pyrrole-2-carboxylic acid [(S)-1-[(6-amino-2-methyl-pyridin-3-ylmethyl)-carbamoyl]-2-(3-chloro-phenyl)-ethyl]-amide] showed an IC50 of 4.5 nM.
CC(C)N(C)[C@@H](CO)C(=O)N[C@@H](CC1CCCCC1)C(=O)NCc1ccc(N)nc1 [Example 388, (S)—N-{(S)-1-[(6-Amino-pyridin-3-ylmethyl)-carbamoyl]-2-cyclohexyl-ethyl}-3-hydroxy-2-(isopropyl-methyl-amino)-propionamide] was tested, and the IC50 was 22.2 nM.
CN1CCC[C@H]1C(=O)N[C@@H](Cc1ccc(F)c(F)c1)C(=O)NCc1ccc(N)nc1 [Example 116, (S)-1-Methyl-pyrrolidine-2-carboxylic acid [(S)-1-[(6-amino-pyridin-3-ylmethyl)-carbamoyl]-2-(3,4-difluoro-phenyl)-ethyl]-amide] showed an IC50 of 16.1 nM.
Work on CN(C)[C@@H](C(=O)N[C@@H](Cc1ccc(F)c(F)c1)C(=O)NCc1ccc(N)nc1)C(C)(C)C [Example 179, (R)—N-[(S)-1-[(6-Amino-pyridin-3-ylmethyl)-carbamoyl]-2-(3,4-difluoro-phenyl)-ethyl]-2-dimethylamino-3,3-dimethyl-butyramide] yielded an IC50 of 3.01 nM.
Compound C[C@@H](C(=O)N[C@@H](Cc1ccc(Cl)c(Cl)c1)C(=O)NCc1ccc(N)nc1)N1CCCCC1 [Example 403, (S)—N-[(S)-1-[(6-Amino-pyridin-3-ylmethyl)-carbamoyl]-2-(3,4-dichloro-phenyl)-ethyl]-2-piperidin-1-yl-propionamide] has an IC50 of 1.1 nM.
Work on CCC(C)[C@@H](N)C(=O)N[C@@H](Cc1ccccc1C)C(=O)NCc1ccc(N)nc1 (stereo partly drawn) [Example 28, (R)-2-Amino-3-methyl-pentanoic acid {(S)-1-[(6-amino-pyridin-3-ylmethyl)-carbamoyl]-2-o-tolyl-ethyl}-amide] yielded an IC50 of 32.1 nM.
Compound Cc1ccccc1C[C@H](NC(=O)[C@H]1CCCN1C)C(=O)NCc1ccc(N)nc1 [Example 104, (R)-1-Methyl-pyrrolidine-2-carboxylic acid {(S)-1-[(6-amino-pyridin-3-ylmethyl)-carbamoyl]-2-o-tolyl-ethyl}-amide] has an IC50 of 24.4 nM.
CCC(C)[C@H](C(=O)N[C@@H](Cc1ccc(Cl)c(Cl)c1)C(=O)NCc1ccc(N)nc1)N(C)S(C)(=O)=O (stereo partly drawn) [Example 8, (R)-2-(Methanesulfonyl-methyl-amino)-3-methyl-pentanoic acid [(S)-1-[(6-amino-pyridin-3-ylmethyl)-carbamoyl]-2-(3,4-dichloro-phenyl)-ethyl]-amide] gave an IC50 of 1.7 nM.
Compound CCC(C)[C@H](C(=O)N[C@@H](Cc1cccc(Cl)c1)C(=O)NCc1ccc(N)nc1)N(C)C (stereo partly drawn) [Example 405, (R)-2-Dimethylamino-3-methyl-pentanoic acid [(S)-1-[(6-amino-pyridin-3-ylmethyl)-carbamoyl]-2-(3-chloro-phenyl)-ethyl]-amide] has an IC50 of 7.1 nM.
CC(C)N(CC(=O)N[C@@H](CC1CCCC2CCCCC21)C(=O)NCc1ccc(N)nc1)C(C)C (stereo partly drawn) [Example 394, (S)—N-(6-Amino-pyridin-3-ylmethyl)-3-(decahydro-naphthalen-1-yl)-2-(2-diisopropylamino-acetylamino)-propionamide] was tested, and the IC50 was 8.4 nM.
CN[C@@H](C)C(=O)N[C@@H](C(=O)NCc1ccc(N)nc1)C(C1CCCCC1)C1CCCCC1 [Example 218, (S)—N-{(R)-1-[(6-Amino-pyridin-3-ylmethyl)-carbamoyl]-2,2-dicyclohexyl-ethyl}-2-methylamino-propionamide] was tested, and the IC50 was 35.3 nM.
Work on CC(C)[C@H](C(=O)N[C@@H](Cc1cccc(Cl)c1)C(=O)NCc1ccc(N)nc1)N(C)C [Example 406, (R)—N-[(S)-1-[(6-Amino-pyridin-3-ylmethyl)-carbamoyl]-2-(3-chloro-phenyl)-ethyl]-2-dimethylamino-3-methyl-butyramide] yielded an IC50 of 4.7 nM.
Compound CCN(C)[C@@H](C)C(=O)N[C@@H](Cc1cccc(C)c1)C(=O)NCc1ccc(N)nc1 [Example 413, (S)—N-{(S)-1-[(6-Amino-pyridin-3-ylmethyl)-carbamoyl]-2-m-tolyl-ethyl}-2-(ethyl-methyl-amino)-propionamide] has an IC50 of 7.9 nM.
Work on Cc1nc(N)ccc1CNC(=O)[C@H](Cc1ccc(Cl)c(Cl)c1)NC(=O)[C@H](N)Cc1ccc(F)cc1 [Example 194, (R)-2-Amino-N-[(S)-1-[(6-amino-2-methyl-pyridin-3-ylmethyl)-carbamoyl]-2-(3,4-dichloro-phenyl)-ethyl]-3-(4-fluoro-phenyl)-propionamide] yielded an IC50 of 5.1 nM.
Compound CN(C)[C@H](Cc1ccccc1)C(=O)N[C@@H](Cc1ccc(F)c(F)c1)C(=O)NCc1ccc(N)nc1 [Example 185, (R)—N-[(S)-1-[(6-Amino-pyridin-3-ylmethyl)-carbamoyl]-2-(3,4-difluoro-phenyl)-ethyl]-2-dimethylamino-3-phenyl-propionamide] has an IC50 of 14.5 nM.
Work on CCC(C)[C@@H](NC)C(=O)N[C@@H](Cc1ccc(F)cc1)C(=O)NCc1ccc(N)nc1 (stereo partly drawn) [Example 44, (R)-3-Methyl-2-methylamino-pentanoic acid [(S)-1-[(6-amino-pyridin-3-ylmethyl)-carbamoyl]-2-(4-fluoro-phenyl)-ethyl]-amide] yielded an IC50 of 5.4 nM.
For Cc1nc(N)ccc1CNC(=O)[C@H](Cc1ccc(Cl)c(Cl)c1)NC(=O)[C@H](N)Cc1ccc(Cl)cc1 [Example 195, (R)-2-Amino-N-[(S)-1-[(6-amino-2-methyl-pyridin-3-ylmethyl)-carbamoyl]-2-(3,4-dichloro-phenyl)-ethyl]-3-(4-chloro-phenyl)-propionamide], the IC50 was 5.4 nM.
For CCCN(CCC)CC(=O)N[C@@H](Cc1ccc(F)c(F)c1)C(=O)NCc1ccc(N)nc1 [Example 158, (S)—N-(6-Amino-pyridin-3-ylmethyl)-3-(3,4-difluoro-phenyl)-2-(2-dipropylamino-acetylamino)-propionamide], the IC50 was 114 nM.
Compound Nc1ccc(CNC(=O)[C@H](Cc2cc(F)cc(F)c2)NC(=O)c2cc3ccccc3[nH]2)cn1 [Example 323, 1H-Indole-2-carboxylic acid [(S)-1-[(6-amino-pyridin-3-ylmethyl)-carbamoyl]-2-(3,5-difluoro-phenyl)-ethyl]-amide] has an IC50 of 48.1 nM.
Work on Nc1ccc(CNC(=O)[C@H](Cc2ccc(F)c(F)c2)NC(=O)c2cc3cc(F)ccc3[nH]2)cn1 [Example 326, 5-Fluoro-1H-indole-2-carboxylic acid [(S)-1-[(6-amino-pyridin-3-ylmethyl)-carbamoyl]-2-(3,4-difluoro-phenyl)-ethyl]-amide] yielded an IC50 of 25.4 nM.
With COc1ccc2[nH]c(C(=O)N[C@@H](Cc3cccc(F)c3)C(=O)NCc3ccc(N)nc3)cc2c1 [Example 312, 5-Methoxy-1H-indole-2-carboxylic acid [(S)-1-[(6-amino-pyridin-3-ylmethyl)-carbamoyl]-2-(3-fluoro-phenyl)-ethyl]-amide] the IC50 was 38.4 nM.
With Cc1cc(C)c(C(=O)N[C@@H](CC2CCCCC2)C(=O)NCc2ccc(N)nc2)[nH]1 [Example 238, 3,5-Dimethyl-1H-pyrrole-2-carboxylic acid {(S)-1-[(6-amino-pyridin-3-ylmethyl)-carbamoyl]-2-cyclohexyl-ethyl}-amide] the IC50 was 35.2 nM.
In the case of COc1ccc2[nH]c(C(=O)N[C@@H](Cc3cccc(C)c3)C(=O)NCc3ccc(N)nc3)cc2c1 [Example 318, 5-Methoxy-1H-indole-2-carboxylic acid {(S)-1-[(6-amino-pyridin-3-ylmethyl)-carbamoyl]-2-m-tolyl-ethyl}-amide], the IC50 is reported as 12.1 nM.
CC(C)N1CCC[C@@H]1C(=O)N[C@@H](Cc1ccccc1Cl)C(=O)NCc1ccc(N)nc1 [Example 126, (R)-1-Isopropyl-pyrrolidine-2-carboxylic acid [(S)-1-[(6-amino-pyridin-3-ylmethyl)-carbamoyl]-2-(2-chloro-phenyl)-ethyl]-amide] was tested, and the IC50 was 9.3 nM.
